According to PubChem BioAssay AID330 (DTP/NCI, 2004):
Where “and” joins values, the source holds several entries; their conditions need not be identical. Equal entries are not always repeated. Toxic doses and inconclusive results are not listed.

System: P388 leukemia ip, CD2F1 mice, survival T/C
Assay: NCI In Vivo Anticancer Drug Screen. Data for tumor model P388 Leukemia (intraperitoneal) in CD2F1 (CDF1) mice
Settings: endpoint: median survival time, higher = longer survival
Outline: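 Mice carrying the transplanted tumor received test compound or vehicle. Survival was recorded in each group, and the value is the treated-group measurement divided by that of the vehicle-treated control group.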

[1] = dose: 50.0 mg/kg/injection, schedule: Q01DX005 (ip), vehicle: saline with Tween-80
[2] = dose: 60.0 mg/kg/injection, schedule: Q01DX005 (ip), vehicle: saline with Tween-80
[3] = dose: 100.0 mg/kg/injection, schedule: Q01DX005 (ip), vehicle: saline with Tween-80
[4] = dose: 120.0 mg/kg/injection, schedule: Q01DX005 (ip), vehicle: saline with Tween-80
[5] = dose: 200.0 mg/kg/injection, schedule: Q01DX005 (ip), vehicle: saline with Tween-80
[6] = dose: 240.0 mg/kg/injection, schedule: Q01DX005 (ip), vehicle: saline with Tween-80
[7] = dose: 50.0 mg/kg/injection, schedule: Q01DX009 (ip), vehicle: saline with Tween-80
[8] = dose: 100.0 mg/kg/injection, schedule: Q01DX009 (ip), vehicle: saline with Tween-80
[9] = dose: 200.0 mg/kg/injection, schedule: Q01DX009 (ip), vehicle: saline with Tween-80
[10] = dose: 50.0 mg/kg/injection, schedule: Q01DX009 (ip), vehicle: saline
[11] = dose: 100.0 mg/kg/injection, schedule: Q01DX009 (ip), vehicle: saline
[12] = dose: 200.0 mg/kg/injection, schedule: Q01DX009 (ip), vehicle: saline
[13] = dose: 25.0 mg/kg/injection, schedule: Q01DX009 (ip), vehicle: saline with Tween-80
[14] = dose: 100.0 mg/kg/injection, schedule: Q01DX001 (ip), vehicle: saline
[15] = dose: 400.0 mg/kg/injection, schedule: Q01DX001 (ip), vehicle: saline
[16] = dose: 100.0 mg/kg/injection, schedule: Q04DX003 (ip), vehicle: Klucel (hydroxypropylcellulose) (HPC)
[17] = dose: 200.0 mg/kg/injection, schedule: Q04DX003 (ip), vehicle: Klucel (hydroxypropylcellulose) (HPC)
[18] = dose: 400.0 mg/kg/injection, schedule: Q04DX003 (ip), vehicle: Klucel (hydroxypropylcellulose) (HPC)

`CCOC(=O)CC(C)P(c1ccccc1)C(C)CC(=O)OCC` (stereo not drawn) was tested, and the T/C [1] was 105 % of control, the T/C [2] was 98 % of control and the T/C [3] was 99 % of control. The T/C [4] was 101 % of control, the T/C [5] was 102 % of control and the T/C [6] was 105 % of control.

In the case of `O=C(O)c1oc2ccccc2c1/C=C/c1ccccc1`, the T/C [7] is reported as 100 % of control, the T/C [8] is reported as 97 % of control and the T/C [9] is reported as 100 % of control.

`CC1(C)OC2(CC1C1(C)C=CC(=O)O1)CC1C(O)(CCC34CC13C(=O)OC4c1ccoc1)O2` (stereo not drawn) was tested, and the T/C [10] was 100 % of control, the T/C [11] was 95 % of control and the T/C [12] was 104 % of control.

For `CCOC(=O)c1c[nH]c2ccc3c(nc(C)n3C)c2c1=O`, the T/C (dose: 30.0 mg/kg/injection, schedule: Q01DX005 (ip), vehicle: Klucel (hydroxypropylcellulose) (HPC)) was 102 % of control and 91 % of control, the T/C (dose: 60.0 mg/kg/injection, schedule: Q01DX005 (ip), vehicle: Klucel (hydroxypropylcellulose) (HPC)) was 103 % of control and 110 % of control and 91 % of control and the T/C (dose: 120.0 mg/kg/injection, schedule: Q01DX005 (ip), vehicle: Klucel (hydroxypropylcellulose) (HPC)) was 112 % of control (2×) and 113 % of control. The T/C (dose: 240.0 mg/kg/injection, schedule: Q01DX005 (ip), vehicle: Klucel (hydroxypropylcellulose) (HPC)) was 115 % of control and 122 % of control and 123 % of control.

With `CCN(CC)CCN(C(=O)OCCOC(=O)N(CCN(CC)CC)c1cccc2sc3ccccc3c(=O)c12)c1cccc2sc3ccccc3c(=O)c12` the T/C [1] was 99 % of control, the T/C [3] was 106 % of control and the T/C [5] was 105 % of control.

In the case of `CSCCCNC(=O)c1csc(-c2csc(CCNC(C)=O)n2)n1`, the T/C (dose: 100.0 mg/kg/injection, schedule: Q04DX002 (ip), vehicle: saline with Tween-80) is reported as 98 % of control, the T/C (dose: 200.0 mg/kg/injection, schedule: Q04DX002 (ip), vehicle: saline with Tween-80) is reported as 95 % of control and the T/C (dose: 400.0 mg/kg/injection, schedule: Q04DX002 (ip), vehicle: saline with Tween-80) is reported as 97 % of control.

`ClCCn1cnc2c(SCc3ccccc3Cl)ncnc21` was tested, and the T/C [13] was 100 % of control, the T/C [7] was 90 % of control and the T/C [8] was 90 % of control.

`c1ccc(C(SN=C2CCCCC2)(c2ccccc2)c2ccccc2)cc1` was tested, and the T/C [1] was 100 % of control, the T/C [3] was 91 % of control and the T/C [5] was 90 % of control.

For `O=C1OCCOCCSCCOCCOC(=O)c2cncc1c2`, the T/C (dose: 100.0 mg/kg/injection, schedule: Q01DX001 (ip), vehicle: Klucel (hydroxypropylcellulose) (HPC)) was 104 % of control, the T/C (dose: 200.0 mg/kg/injection, schedule: Q01DX001 (ip), vehicle: Klucel (hydroxypropylcellulose) (HPC)) was 104 % of control and the T/C (dose: 400.0 mg/kg/injection, schedule: Q01DX001 (ip), vehicle: Klucel (hydroxypropylcellulose) (HPC)) was 101 % of control.

With `N#CCC(=O)CCCCCCCO` the T/C [14] was 93 % of control and the T/C [15] was 92 % of control.

With `O=c1[nH]c2cc(Cl)ccc2nc1/C=C(\O)c1ccc2ccccc2c1` the T/C [2] was 89 % of control, the T/C [4] was 89 % of control and the T/C [6] was 110 % of control.

In the case of `O=C(CNC(=O)C(Cc1c[nH]c2ccccc12)NC(=O)OCc1ccccc1)NCC(=O)OCc1ccccc1` (stereo not drawn), the T/C [1] is reported as 104 % of control, the T/C [3] is reported as 100 % of control and the T/C [5] is reported as 110 % of control.

With `CCOP(O)(=S)OCC.[Ce]` the T/C [16] was 99 % of control, the T/C [17] was 100 % of control and the T/C [18] was 93 % of control.

For `N#Cc1ccc(N=Cc2ccc(C=Nc3ccc(C#N)c(C#N)c3)cc2)cc1C#N`, the T/C (dose: 12.5 mg/kg/injection, schedule: Q01DX009 (ip), vehicle: saline with Tween-80) was 93 % of control, the T/C [13] was 104 % of control and the T/C [7] was 88 % of control. For the same compound, the T/C [8] was 87 % of control and the T/C [9] was 97 % of control.

With `CCC1(O)CC(OC2CC(O)C(O)CO2)c2c(O)c3c(c(O)c2C1C(=O)OC)C(=O)c1cccc(O)c1C3=O` (stereo not drawn) the T/C (dose: 1.56 mg/kg/injection, schedule: Q01DX009 (ip), vehicle: other) was 90 % of control, the T/C (dose: 3.13 mg/kg/injection, schedule: Q01DX009 (ip), vehicle: other) was 88 % of control and the T/C (dose: 6.25 mg/kg/injection, schedule: Q01DX009 (ip), vehicle: other) was 101 % of control. The T/C (dose: 12.5 mg/kg/injection, schedule: Q01DX009 (ip), vehicle: other) was 115 % of control and the T/C (dose: 25.0 mg/kg/injection, schedule: Q01DX009 (ip), vehicle: other) was 92 % of control.

In the case of `C[CH2][Sn]([CH2]C)([N]=C=S)[N]=C=S`, the T/C (dose: 3.12 mg/kg/injection, schedule: Q01DX009 (ip), vehicle: saline) is reported as 99 % of control and 100 % of control and the T/C (dose: 6.25 mg/kg/injection, schedule: Q01DX009 (ip), vehicle: saline) is reported as 86 % of control and 93 % of control.

For `CCO/C(C)=[N+](/[O-])S(=O)(=O)c1c(C)cc(C)cc1C`, the T/C [14] was 103 % of control, the T/C (dose: 200.0 mg/kg/injection, schedule: Q01DX001 (ip), vehicle: saline) was 100 % of control and the T/C [15] was 104 % of control.

`Cc1ccc(N2C(=O)CC3(CCCC3)C2=O)cc1Cl` was tested, and the T/C (dose: 50.0 mg/kg/injection, schedule: Q01DX009 (ip), vehicle: Klucel (hydroxypropylcellulose) (HPC)) was 104 % of control, the T/C (dose: 100.0 mg/kg/injection, schedule: Q01DX009 (ip), vehicle: Klucel (hydroxypropylcellulose) (HPC)) was 108 % of control and the T/C (dose: 200.0 mg/kg/injection, schedule: Q01DX009 (ip), vehicle: Klucel (hydroxypropylcellulose) (HPC)) was 105 % of control.

With `CC12CCC(C/C1=N\[N+](=O)[O-])C2(C)C` (stereo not drawn) the T/C (dose: 12.5 mg/kg/injection, schedule: Q01DX009 (ip), vehicle: suspension in saline) was 96 % of control, the T/C (dose: 25.0 mg/kg/injection, schedule: Q01DX009 (ip), vehicle: suspension in saline) was 97 % of control and the T/C [10] was 100 % of control. For the same compound, the T/C (dose: 50.0 mg/kg/injection, schedule: Q01DX009 (ip), vehicle: suspension in saline) was 97 % of control and the T/C [12] was 90 % of control.

With `COC(=O)C1C2C=CC(C1C(=O)OC)N(/C=C/c1ccccc1)C2=O` (stereo not drawn) the T/C [16] was 96 % of control, the T/C [17] was 95 % of control and the T/C [18] was 97 % of control.

With `COC1OC(CO)C(O)C(NC(=O)N(C)N=O)C1O` (stereo not drawn) the T/C [11] was 169 % of control and 187 % of control, the T/C [12] was 218 % of control and 232 % of control and the T/C (dose: 400.0 mg/kg/injection, schedule: Q01DX009 (ip), vehicle: saline) was 105 % of control and 117 % of control.

For `Cc1[nH]c(-c2ccccc2)c2[nH]c(=O)n(-c3ccccc3)c(=O)c12`, the T/C [16] was 93 % of control, the T/C [17] was 98 % of control and the T/C [18] was 93 % of control.

For `COc1cccc(CCN2C(=O)CCC3=C2CCC3=O)c1`, the T/C (dose: 25.0 mg/kg/injection, schedule: Q01DX005 (ip), vehicle: Klucel (hydroxypropylcellulose) (HPC)) was 94 % of control, the T/C (dose: 50.0 mg/kg/injection, schedule: Q01DX005 (ip), vehicle: Klucel (hydroxypropylcellulose) (HPC)) was 105 % of control and the T/C (dose: 100.0 mg/kg/injection, schedule: Q01DX005 (ip), vehicle: Klucel (hydroxypropylcellulose) (HPC)) was 102 % of control. For the same compound, the T/C (dose: 200.0 mg/kg/injection, schedule: Q01DX005 (ip), vehicle: Klucel (hydroxypropylcellulose) (HPC)) was 98 % of control.

`Cn1nc(-c2cccc(F)c2)[n+](C)n1` was tested, and the T/C (dose: 50.0 mg/kg/injection, schedule: Q01DX005 (ip), vehicle: saline) was 102 % of control and the T/C (dose: 100.0 mg/kg/injection, schedule: Q01DX005 (ip), vehicle: saline) was 98 % of control.

`O=c1[nH]c2c(Cl)c(Cl)c(Cl)c(Cl)c2[nH]c1=O` was tested, and the T/C [1] was 90 % of control and the T/C [3] was 87 % of control.

With `CC1=CC(C)=Nc2ccccc2N1` the T/C [10] was 103 % of control, the T/C [11] was 99 % of control and 101 % of control and the T/C [12] was 94 % of control.

For `CCOC(=O)C1=C(c2ccccc2)SC(c2ccccc2)N(C(C)C)C1=O` (stereo not drawn), the T/C [13] was 106 % of control, the T/C [7] was 107 % of control and the T/C [8] was 100 % of control.
